Data as given in paper PMC7048775, “Single-molecule imaging of PI(4,5)P2 and PTEN in vitro reveals a positive feedback mechanism for PTEN membrane binding” (Communications Biology, 2020).

Assays:
[1] = target: T1, PTEN (PTEN-Halo) (Dictyostelium discoideum, UniProt Q8T9S7); experiment: single-molecule TIRF imaging on supported planar lipid bilayer, dissociation curve; conditions: 10 mol% PI(4,5)P2 in DOPC bilayer, pH 8.0, 300 mM NaCl, 21 °C; membrane dissociation of protein, two binding states; no affinity constant
T1 sequence (Q8T9S7 1-533): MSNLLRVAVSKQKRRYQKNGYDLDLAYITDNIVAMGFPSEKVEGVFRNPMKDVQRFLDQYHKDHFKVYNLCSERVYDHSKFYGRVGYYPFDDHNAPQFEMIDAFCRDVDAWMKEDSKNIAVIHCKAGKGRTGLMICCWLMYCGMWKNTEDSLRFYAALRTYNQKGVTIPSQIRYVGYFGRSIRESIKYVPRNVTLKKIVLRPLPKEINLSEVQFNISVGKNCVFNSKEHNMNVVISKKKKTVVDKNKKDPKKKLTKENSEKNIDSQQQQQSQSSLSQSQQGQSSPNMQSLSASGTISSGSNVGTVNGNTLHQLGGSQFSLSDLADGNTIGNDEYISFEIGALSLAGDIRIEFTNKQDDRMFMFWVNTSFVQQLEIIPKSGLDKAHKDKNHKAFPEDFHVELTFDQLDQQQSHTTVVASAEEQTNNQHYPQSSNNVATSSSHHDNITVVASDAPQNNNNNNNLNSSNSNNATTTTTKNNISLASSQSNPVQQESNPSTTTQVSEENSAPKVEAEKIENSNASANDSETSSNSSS

[2] = target: T2, PTEN (PTEN-Halo) (Dictyostelium discoideum, UniProt Q8T9S7, R47A); experiment: as above; type: binding; conditions: 10 mol% PI(4,5)P2 in DOPC bilayer, pH 8.0, 300 mM NaCl, 21 °C
[3] = target: T2, PTEN (PTEN-Halo); experiment: phosphate release, BIOMOL Green, absorbance […] nm; type: biochemical; conditions: 5 nmol substrate in 50 μL, pH 8.0, 2 mM DTT, 21 °C, 2 h
[4] = target: PTEN (PTEN-Halo) (Dictyostelium discoideum, UniProt Q8T9S7, K11A/K13A/R14A/R15A); experiment: phosphate release, BIOMOL Green, absorbance […] nm; type: biochemical; conditions: 5 nmol substrate in 50 μL, pH 8.0, 2 mM DTT, 21 °C, 2 h
PTEN (PTEN-Halo) (Dictyostelium discoideum, UniProt Q8T9S7, K11A/K13A/R14A/R15A), sequence (Q8T9S7 whole entry K11A/K13A/R14A/R15A): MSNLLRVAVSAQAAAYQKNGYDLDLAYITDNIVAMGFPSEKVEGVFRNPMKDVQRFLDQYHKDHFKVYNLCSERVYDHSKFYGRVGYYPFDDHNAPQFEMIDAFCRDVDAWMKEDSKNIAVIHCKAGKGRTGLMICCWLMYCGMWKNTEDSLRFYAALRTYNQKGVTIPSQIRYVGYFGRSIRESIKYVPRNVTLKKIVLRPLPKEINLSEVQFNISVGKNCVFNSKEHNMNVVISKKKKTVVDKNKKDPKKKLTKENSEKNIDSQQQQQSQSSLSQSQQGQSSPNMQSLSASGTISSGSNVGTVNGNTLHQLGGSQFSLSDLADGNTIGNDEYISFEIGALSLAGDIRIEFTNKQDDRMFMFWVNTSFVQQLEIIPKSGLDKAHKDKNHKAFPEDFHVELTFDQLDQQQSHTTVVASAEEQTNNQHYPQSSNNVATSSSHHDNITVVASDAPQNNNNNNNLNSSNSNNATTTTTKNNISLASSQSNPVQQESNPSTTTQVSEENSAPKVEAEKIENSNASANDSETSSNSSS

T2 sequence (Q8T9S7 whole entry R47A): as the sequence (Q8T9S7 whole entry K11A/K13A/R14A/R15A) above, with A11K, A13K, A14R, A15R, R47A counted along it

average dissociation rate constant k [1] [s⁻¹]	Compound	average dissociation rate constant k [2]	phosphate release, BIOMOL Green, absorbance 620 nm [3]	phosphate release, BIOMOL Green, absorbance 620 nm [4]
15.9 ± 2.8	CCCCCCCC/C=C\CCCCCCCC(=O)OC[C@H](COP(=O)(O)O[C@@H]1[C@H](O)[C@H](O)[C@@H](OP(=O)(O)O)[C@H](OP(=O)(O)O)[C@H]1O)OC(=O)CCCCCCC/C=C\CCCCCCCC [PI(4,5)P2, 1,2-dioleoyl-sn-glycero-3-phospho-(1′-myo-inositol-4′,5′-bisphosphate)]	both mutants exhibited faster dissociation than wild type		
	CCCCCCCC(=O)OC[C@H](COP(=O)(O)O[C@H]1[C@H](O)[C@@H](OP(=O)(O)O)[C@H](OP(=O)(O)O)[C@@H](OP(=O)(O)O)[C@H]1O)OC(=O)CCCCCCC [diC8-PI(3,4,5)P3]		Phosphatase activities of the mutants were comparable to each other	Phosphatase activities of the mutants were comparable to each other
